CB1/CB2 ratio, Ki and melting point data for five compounds are collected here from patent US7524867B2, “Tetrasubstituted imidazole derivatives as cannabinoid CB1 receptor modulators with a high CB1/CB2 receptor subtype selectivity” (Solvay Pharmaceuticals, B.V., priority 2004, dated 2009).

Like-named read-outs stand apart in the source and are kept apart here.

The target of data set [1] is T1, human cannabinoid CB1 receptor (Homo sapiens, UniProt P21554).
T1 construct: expressed in transfected cells; host or cells: Chinese hamster ovary (CHO) cells, stably transfected; membrane preparation
As to the kind of experiment: In vitro affinity for cannabinoid-CB1 receptors ([3H]CP-55,940 radioligand binding, CHO cell membranes). The settings on record: for CB1/CB2 ratio: CB1/CB2 receptor subtype selectivity (affinity ratio; numerically CB2 nM value divided by CB1 nM value). The method, then:
In Vitro Affinity for Cannabinoid-CB1 Receptors
After incubation of a freshly prepared cell membrane preparation with the [^3H]-ligand, with or without addition of compounds of the invention, separation of bound and free ligand is performed by filtration over glassfiber filters. Radioactivity on the filter is measured by liquid scintillation counting.
The affinity of the compounds of the invention for CB1 receptors was determined as described above. […] Pharmacokinetic, pharmacodynamic, and other considerations may alter the dose actually administered to a higher or lower value. The dosage expediently administered is 0.001-1000 mg/kg, preferably 0.1-100 mg/kg of patient's bodyweight.

For data set [2], the target named is T2, human cannabinoid CB2 receptor (Homo sapiens, UniProt P34972).
T2 construct: expressed in transfected cells; host or cells: Chinese hamster ovary (CHO) cells, stably transfected; membrane preparation
As to the kind of experiment: In vitro affinity for cannabinoid-CB2 receptors ([3H]CP-55,940 radioligand binding, CHO cell membranes). The settings on record: membranes of CHO cells stably transfected with human CB2, mean of at least three independent experiments. The method, then: In Vitro Affinity for Cannabinoid-CB2 Receptors
The affinity of the compounds of the invention for cannabinoid CB2 receptors can be determined using membrane preparations of Chinese hamster ovary (CHO) cells in which the human cannabinoid CB2 receptor is stably transfected in conjunction with [^3H]CP-55,940 as radioligand. After incubation of a freshly prepared cell membrane preparation with the [^3H]-ligand, with or without addition of compounds of the invention, separation of bound and free ligand is performed by filtration over glassfiber filters. Radioactivity on the filter is measured by liquid scintillation counting.

T2 sequence (P34972 whole entry): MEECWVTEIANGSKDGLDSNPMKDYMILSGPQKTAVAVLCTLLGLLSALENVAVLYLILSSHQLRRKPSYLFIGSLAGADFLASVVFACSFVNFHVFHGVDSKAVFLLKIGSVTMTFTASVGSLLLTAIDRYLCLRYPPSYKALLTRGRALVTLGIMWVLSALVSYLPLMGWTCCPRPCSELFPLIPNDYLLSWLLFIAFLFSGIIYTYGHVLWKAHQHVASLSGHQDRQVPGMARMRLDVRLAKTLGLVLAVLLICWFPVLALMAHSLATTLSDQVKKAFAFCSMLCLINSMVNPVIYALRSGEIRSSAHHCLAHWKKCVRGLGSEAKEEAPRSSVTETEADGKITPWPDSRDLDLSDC
T1 sequence (P21554 whole entry): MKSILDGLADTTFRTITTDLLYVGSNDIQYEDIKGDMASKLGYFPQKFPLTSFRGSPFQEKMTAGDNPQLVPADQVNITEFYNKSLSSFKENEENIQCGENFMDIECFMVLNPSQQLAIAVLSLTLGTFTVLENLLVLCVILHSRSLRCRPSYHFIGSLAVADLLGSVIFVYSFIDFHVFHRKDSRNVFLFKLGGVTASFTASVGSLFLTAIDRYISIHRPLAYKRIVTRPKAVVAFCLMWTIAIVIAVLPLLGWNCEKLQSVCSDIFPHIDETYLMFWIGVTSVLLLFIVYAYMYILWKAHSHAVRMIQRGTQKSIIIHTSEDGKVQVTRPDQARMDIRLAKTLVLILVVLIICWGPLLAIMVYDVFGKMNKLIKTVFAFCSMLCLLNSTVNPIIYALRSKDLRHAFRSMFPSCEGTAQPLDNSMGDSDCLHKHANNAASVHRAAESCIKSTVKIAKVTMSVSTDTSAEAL

As to `CSc1c(C(=O)NN2CCCCCC2)nc(-c2ccc(Cl)cc2Cl)n1-c1ccc(Cl)cc1` [compound 10, 1-(4-chlorophenyl)-2-(2,4-dichlorophenyl)-5-methylsulfanyl-N-(azepan-1-yl)-1H-imidazole-4-carboxamide], the CB1/CB2 ratio in data set [1] is greater than 142. The Ki was 7 nM in data set [1] (receptor affinity, membranes of CHO cells stably transfected with human CB1, [3H]CP-55,940, mean of at least three independent experiments, read-out: CB1) and greater than 1000 nM in data set [2].

As to `CSc1c(C(=O)NN2CCCC2)nc(-c2ccc(Cl)cc2Cl)n1-c1ccc(Cl)cc1` [compound 9, 1-(4-chlorophenyl)-2-(2,4-dichlorophenyl)-5-methylsulfanyl-N-(pyrrolidin-1-yl)-1H-imidazole-4-carboxamide], in data set [1], the Ki was 5 nM and the CB1/CB2 ratio is given as greater than 200. Further, the Ki in data set [2] was greater than 1000 nM.

As for `CSc1c(C(=O)NN2CCCCC2)nc(-c2ccc(Cl)cc2Cl)n1-c1ccc(Cl)cc1` [compound 6, 1-(4-Chlorophenyl)-2-(2,4-dichlorophenyl)-5-methylsulfanyl-N-(piperdin-1-yl)-1H-imidazole-4-carboxamide], the CB1/CB2 ratio in data set [1] was determined as 171. The Ki in data set [2] came out at 2060 nM.

As usually defined, the melting point is the temperature, or range, at which the solid turns liquid. As for `CSc1c(C(=O)NN2CCCCC2)nc(-c2ccccc2Cl)n1-c1ccc(Cl)cc1`, the melting point is 192 to 193 °C.

As to `CS(=O)(=O)c1c(C(=O)NN2CCCCC2)nc(-c2ccc(Cl)cc2Cl)n1-c1ccc(Cl)cc1` [compound 1, 1-(4-Chlorophenyl)-2-(2,4-dichlorophenyl)-5-methylsulfonyl-N-(piperidin-1-yl)-1H-imidazole-4-carboxamide], in data set [1], the Ki was 12 nM and the CB1/CB2 ratio is on record as 638. In data set [2], the Ki was 7650 nM.
